This passage reports ring closure, yield of all isomers, IC50 and EC50 results from patent US10981932B2, “Macrocyclic indole derivatives” (Bayer Aktiengesellschaft, priority 2016, dated 2021).

For data set [1] the following is noted: rcm bond, Grubbs 2nd generation catalyst.
A further data set deals with MCL-1 (Homo sapiens, UniProt Q07820). In words: Protein-protein interaction assay MCL-1/Noxa BH3 peptide (MCL-1 assay), TR-FRET. It is filed as binding. Conditions: MBP-MCL-1 / Noxa BH3-derived peptide, median. The method in brief: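 MBP-MCL-1 (1 nM final) was preincubated 10 min at 22 °C with compounds (11 concentrations, 0.1 nM–20 μM, duplicates) in Tris pH 7 buffer with NaCl, KF, Tween-20, DTT and BGG. After 1 h at 22 °C in the dark plus overnight at 4 °C, anti-MBP Eu-cryptate/streptavidin-XL665 TR-FRET was read; IC50 came from a 4-parameter fit.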
Sequence of MCL-1 (Q07820 whole entry): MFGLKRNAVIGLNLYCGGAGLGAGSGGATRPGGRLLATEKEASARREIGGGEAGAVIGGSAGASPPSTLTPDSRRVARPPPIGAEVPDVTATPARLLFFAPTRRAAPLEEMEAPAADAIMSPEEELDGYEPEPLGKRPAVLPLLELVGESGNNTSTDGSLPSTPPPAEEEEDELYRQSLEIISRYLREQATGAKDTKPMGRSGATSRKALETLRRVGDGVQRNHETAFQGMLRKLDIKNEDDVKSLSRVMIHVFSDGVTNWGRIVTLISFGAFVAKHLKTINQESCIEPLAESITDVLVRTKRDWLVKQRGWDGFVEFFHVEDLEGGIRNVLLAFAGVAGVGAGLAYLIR
(In general: In TR-FRET formats the signal depends on donor and acceptor labels being close together.)

Data set [2] relates to SUDHL5. The experiment in a line: Induction of caspase-3/7 activity (Caspase-Glo 3/7), SUDHL5. As to conditions: caspase-3/7 induction, SUDHL5 cells, 3 h treatment, median. In kind it is cell-based. The method in brief:
(§1)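 Caspase-Glo 3/7 luminescence measured after 3 h compound exposure at 37 °C in SUDHL10 and SUDHL5 cells. EC50 values come from background-corrected signals, with curve bottom set to 1 and plateau set to maximal induction by the reference compound.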

For data set [3], the system named is SUDHL10. The experiment in a line: Induction of caspase-3/7 activity (Caspase-Glo 3/7), SUDHL10. As to conditions: caspase-3/7 induction, SUDHL10 cells, 3 h treatment, median. In kind it is cell-based. In short, it runs like this: as §1
For data set [4], the system named is SUDHL5. In words: Anti-proliferative effect (CellTiter-Glo, 72 h), SUDHL5. It is filed as cell-based. Conditions: SUDHL5 cells, antiproliferation, 72 h incubation, median, read-out: Antiproli SUDHL5 [M] (median). In short, it runs like this:
(§2)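 Anti-proliferative activity is derived from ATP-based luminescence (CellTiter-Glo) in cells exposed to compound for 72 h at 37 °C, set against a time zero plate read at seeding.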
(In general: Cellular ATP, detected with luciferase, serves as a proxy for viable cell number.)

Data set [5] relates to SUDHL10. In words: Anti-proliferative effect (CellTiter-Glo, 72 h), SUDHL10. Conditions: SUDHL10 cells, antiproliferation, 72 h incubation, median, read-out: Antiproli SUDHL10 [M] (median). It is filed as cell-based. The method in brief: as §2
A further data set has as its system OPM2. The experiment in a line: Anti-proliferative effect (CellTiter-Glo, 72 h), OPM2. In kind it is cell-based. Conditions: OPM2 cells, median, read-out: IC50 antiproliferation assay OPM2 [M] (median). The method in brief:
as §2

The next data set deals with A2780. The experiment in a line: Anti-proliferative effect (CellTiter-Glo, 72 h), A2780. In kind it is cell-based. Conditions: A2780 cells, median, read-out: IC50 antiproliferation assay A2780 [M] (median). In short, it runs like this: as §2
For the next data set, the system named is MV-4-11. In words: Anti-proliferative effect (CellTiter-Glo, 72 h), MV-4-11. In kind it is cell-based. As to conditions: MV-4-11 cells, median, read-out: IC50 antiproliferation assay MV-4-11 [M] (median). The method in brief:
as §2

Data set [6] relates to SUDHL5. The experiment in a line: Induction of cytotoxicity (CellTiter-Glo, 5 h), SUDHL5.
Experimental: Therefore, cytotoxicity assays were run in parallel in SUDHL5 and SUDHL10 cells.
The different cell lines were plated in culture medium (RPMI 1640 [GIBCO #22400-089]supplemented with 10% Fetal Bovine Serum) at a density of 3.300 cells in 30 μl/well in a sterile, solid black, flat bottom, polystyrene, TC-treated 384-well microplate (Corning #3571) using Multidrop Combi Reagent Dispenser. As a control, medium without cells was also added to the plate. Cells were incubated in a humidified incubator at 37° C. overnight. On the next day, the cells were treated with compounds (stock solution, 10 mM in DMSO) using the HP D300 Digital Dispenser in a concentration range of 3.3×10e-5 M (33 μM) to 5×10e-9 M (5 nM) in a single-dot curve with at least 16 dilutions and a DMSO concentration of 0.33%. Rim wells were excluded. The cells were incubated for 5 h hours in a humidified incubator at 37° C. After this incubation, 30 μl of CellTiter-Glo@ Luminescent Cell Viability reagent (Promega, G7573) was added to each well using the Multidrop Combi Reagent Dispenser, followed by 15 min incubation on a shaker at room temperature. Finally, luminescence was read at 0.1 ms, with a gain of 3000 using the PHERAstar FS microplate reader (BMG Labtech).
The Bella DRC Master Sheet was used to calculate IC50s, with fixed CI=0 and C0=1.
Data set [7] concerns SUDHL10. In words: Induction of cytotoxicity (CellTiter-Glo, 5 h), SUDHL10.
Where [8] appears, read: read-out: Cytotox SUDHL5 [M] (median), SUDHL5 cells, cytotoxicity induction, CellTiter-Glo, 5 h incubation, median.
[9] abbreviates: read-out: Cytotox SUDHL10 [M] (median), SUDHL10 cells, cytotoxicity induction, CellTiter-Glo, 5 h incubation, median.

SMILES strings stand for the structures. Counter-ions that a name gives are not always drawn. Like-named read-outs stand apart in the source and are kept apart here. A value given as a limit tells only on which side of the number the result lay.

For `CCOC(=O)c1c(CCCOc2cccc3ccccc23)c2cccc3c2n1CC=CCN(Cc1ccccc1)c1c-3c(C)nn1C`, the ring closure, yield of all isomers in [1] (from C=CCN(Cc1ccccc1)c1c(-c2cccc3c(CCCOc4cccc5ccccc45)c(C(=O)OCC)n(CC=C)c23)c(C)nn1C, toluene, 6.11 mM, 90.0 °C, 5.5 h) came to 96.7%.

In turn, `CCOC(=O)c1c(CCCOc2cccc3ccccc23)c2cccc3c2n1CC=CCOCc1c-3c(COC(C)C)nn1C` returned a ring closure, yield of all isomers in data set [1] (from C=CCOCc1c(-c2cccc3c(CCCOc4cccc5ccccc45)c(C(=O)OCC)n(CC=C)c23)c(COC(C)C)nn1C, dichloromethane, 77.5 mM, 25.0 °C, 24.0 h) of 89.2%.

For `CCOC(=O)c1c(CCCO[Si](C)(C)C(C)(C)C)c2cccc3c2n1CC=CCOCc1c-3c(C)nn1C` (mixture of isomers), the ring closure, yield of all isomers in data set [1] (from C=CCOCc1c(-c2cccc3c(CCCO[Si](C)(C)C(C)(C)C)c(C(=O)OCC)n(CC=C)c23)c(C)nn1C, dichloromethane, 48.0 mM, 25.0 °C, 16.0 h) amounted to 52.7%.

The molecule `CCOC(=O)c1c(CCCOc2cccc3ccccc23)c2cccc3c2n1CC=CCOCCc1c-3c(C)nn1C` (mixture of isomers) gave a ring closure, yield of all isomers in data set [1] (from C=CCOCCc1c(-c2cccc3c(CCCOc4cccc5ccccc45)c(C(=O)OCC)n(CC=C)c23)c(C)nn1C, dichloromethane, 50.9 mM, 25.0 °C, 48.0 h) of 47.5%.

For the molecule `CCOC(=O)c1c(CCCOc2cccc3ccccc23)c2cccc3c2n1CC=CCOCc1c-3c(CN2CCOCC2)nn1C` (mixture of isomers), the ring closure, yield of all isomers in data set [1] (from C=CCOCc1c(-c2cccc3c(CCCOc4cccc5ccccc45)c(C(=O)OCC)n(CC=C)c23)c(CN2CCOCC2)nn1C, dichloromethane, 79.5 mM, 25.0 °C, 48.0 h) amounted to 14.2%.

`CCOC(=O)c1c(CCCOc2cccc3ccccc23)c2cccc3c2n1CC=CCOCc1c-3c(COCc2ccccc2)nn1C` (mixture of isomers) came in with a ring closure, yield of all isomers in [1] (from C=CCOCc1c(-c2cccc3c(CCCOc4cccc5ccccc45)c(C(=O)OCC)n(CC=C)c23)c(COCc2ccccc2)nn1C, dichloromethane, 76.8 mM, 25.0 °C, 72.0 h) of 74.2%.

`CCOC(=O)c1c(CCCOc2cccc3ccccc23)c2cccc3c2n1CC=CCOCc1c-3c(COc2ccc(C3(O)CCOCC3)cc2)nn1C` (mixture of isomers) yielded a ring closure, yield of all isomers in [1] (from C=CCOCc1c(-c2cccc3c(CCCOc4cccc5ccccc45)c(C(=O)OCC)n(CC=C)c23)c(COc2ccc(C3(O)CCOCC3)cc2)nn1C, dichloromethane, 80.0 mM, 25.0 °C, 72.0 h) of 66.1%.

Regarding `CCOCc1nn(C)c2c1-c1cccc3c(CCCOc4cccc5ccccc45)c(C(=O)OCC)n(c13)CC=CCOC2` (mixture of isomers), in data set [1] (from C=CCOCc1c(-c2cccc3c(CCCOc4cccc5ccccc45)c(C(=O)OCC)n(CC=C)c23)c(COCC)nn1C, dichloromethane, 76.0 mM, 25.0 °C, 24.0 h), the ring closure, yield of all isomers worked out at 47.3%.

Regarding `Cc1c2c(nn1C)CN(C)CCCn1c(C(=O)O)c(CCCOc3cccc4ccccc34)c3cccc-2c31` (single isomer, unassigned; enantiomer 2) [Example 1-35, 7,10,11-trimethyl-1-[3-(naphthalen-1-yloxy)propyl]-4,5,6,7,8,10-hexahydropyrazolo[3′,4′:7,8][1,5]diazecino[9,10,1-hi]indole-2-carboxylic Acid-N-ethylethanamine Salt (Enantiomer 2)], the IC50 was 0.11 µM against MCL-1; 2.56e-05 M in the data set on SUDHL5 [4]; 3.25e-05 M in the data set on SUDHL10 [5]; greater than 3.3e-05 M in the data set with OPM2; greater than 3.3e-05 M in the data set on A2780; 1.96e-05 M in the data set with MV-4-11. Besides, the IC50 with SUDHL5 [6] (setting [8]) worked out at 2.02e-05 M; in the data set on SUDHL10 [7] (setting [9]), 1.18e-05 M. For the same molecule, the EC50 in the data set on SUDHL5 [2] is 26.9 µM; in the data set on SUDHL10 [3], greater than 33 µM.

Consider `COCc1c2c(nn1C)COCCCCn1c(C(=O)O)c(CCCOc3cccc4ccccc34)c3cccc-2c31` (single isomer, unassigned; enantiomer 2) [Example 101, 3-(methoxymethyl)-2-methyl-7-[3-(naphthalen-1-yloxy)propyl]-2,10,11,12,13,15-hexahydropyrazolo[4′,3′:9,10][1,6]oxazacycloundecino[8,7,6-hi]indole-8-carboxylic acid-N-ethylethanamine Salt (Enantiomer 2)], for which the IC50 at MCL-1 amounted to 0.00185 µM; in the data set with SUDHL5 [4], 1.32e-06 M; in the data set with SUDHL10 [5], 4.47e-06 M; with OPM2 (Homo sapiens, OPM-2, 72 h), 4.37e-06 M; with A2780, 2.71e-05 M; with MV-4-11 (Homo sapiens, MV4-11, 72 h) it was 1.85e-06 M. The IC50 in the data set with SUDHL5 [6] (setting [8]) turned out to be 2.03e-06 M; in the data set on SUDHL10 [7] (setting [9]), 4e-06 M. For the same molecule, the EC50 amounted to 1.74 µM in the data set with SUDHL5 [2] and 3.43 µM in the data set on SUDHL10 [3].

As to `Cn1nc(COc2ccc(N3CCOCC3)cc2)c2c1COCC=CCn1c(C(=O)O)c(CCCOc3cccc4ccccc34)c3cccc-2c31` (single isomer, unassigned; enantiomer 2) [Example 120, (−)-(E/Z)-1-methyl-3-{[4-(morpholin-4-yl)phenoxy]methyl}-7-[3-(naphthalen-1-yloxy)propyl]-1,10,13,15-tetrahydropyrazolo[4′,3′:9,10][1,6]oxazacycloundecino[8,7,6-hi]indole-8-carboxylic Acid (Enantiomer 2)], the IC50 on MCL-1 was 0.0272 µM; in the data set with SUDHL5 [4] it was 1.08e-05 M; in the data set with SUDHL10 [5], 1.4e-05 M; in the data set with OPM2, 4.36e-06 M; with A2780 it was 1.11e-05 M; in the data set on MV-4-11 it was 1.13e-05 M. The values for the IC50 in the data set on SUDHL5 [6] (setting [8]) and in the data set with SUDHL10 [7] (setting [9]) were 3.21e-05 M and greater than 3.3e-05 M, respectively. For the same molecule, the figures for the EC50 with SUDHL5 [2] and in the data set on SUDHL10 [3] were 31.4 µM and 18.4 µM, respectively.

For `CN1CCCn2c(C(=O)O)c(CCCOc3cccc4ccccc34)c3cccc(c32)-c2c(CNCC(F)(F)F)nn(C)c2C1` (single isomer, unassigned; enantiomer 2) [Example 131, 7,9-dimethyl-1-[3-(naphthalen-1-yloxy)propyl]-11-{[(2,2,2-trifluoroethyl)amino]methyl}-4,5,6,7,8,9-hexahydropyrazolo[3′,4′:7,8][1,5]diazecino[9,10,1-hi]indole-2-carboxylic acid-N-ethylethanamine Salt (Enantiomer 2)], the IC50 against MCL-1 amounted to 0.0191 µM; with SUDHL5 [4], 1.17e-05 M; with SUDHL10 [5], 1.16e-05 M; in the data set with OPM2 it was 1.71e-05 M; in the data set with A2780 it was 1.48e-05 M; in the data set with MV-4-11 (Homo sapiens, MV4-11, 72 h), 6.24e-06 M. For the same molecule, the IC50 was found to be 1.46e-05 M in the data set on SUDHL5 [6] (setting [8]) and 2.88e-05 M in the data set on SUDHL10 [7] (setting [9]). Moreover, the results for the EC50 with SUDHL5 [2] and in the data set on SUDHL10 [3] were 25.9 µM and 30.9 µM, respectively.

Take `Cn1nc(CN2CCOCC2)c2c1COCCCCn1c(C(=O)O)c(CCCOc3cccc4ccccc34)c3cccc-2c31` (single isomer, unassigned; enantiomer 2) [Example 137, 1-methyl-3-(morpholin-4-ylmethyl)-7-[3-(naphthalen-1-yloxy)propyl]-1,10,11,12,13,15-hexahydropyrazolo[4′,3′:9,10][1,6]oxazacycloundecino[8,7,6-hi]indole-8-carboxylic Acid (Enantiomer 2)]: the IC50 on MCL-1 was 0.0107 µM; in the data set on SUDHL5 [4] (Homo sapiens, SU-DHL-5, 72 h), 2.67e-06 M; with SUDHL10 [5] (Homo sapiens, SU-DHL10, 72 h), 5.9e-06 M; with OPM2 (Homo sapiens, OPM-2, 72 h), greater than 3.3e-05 M; in the data set on A2780 (Homo sapiens, A2780, 72 h), greater than 3.3e-05 M; with MV-4-11 (Homo sapiens, MV4-11, 72 h) it was 6.78e-06 M. For the same molecule, the IC50 was found to be 8.98e-06 M in the data set on SUDHL5 [6] (Homo sapiens, SU-DHL-5, 5 h, read-out: Cytotox SUDHL5 [M] (median), SUDHL5 cells, cytotoxicity induction, CellTiter-Glo, 5 h incubation, median) and 3.06e-05 M with SUDHL10 [7] (Homo sapiens, SU-DHL10, 5 h, read-out: Cytotox SUDHL10 [M] (median), SUDHL10 cells, cytotoxicity induction, CellTiter-Glo, 5 h incubation, median). In addition, the EC50 was 12.9 µM in the data set with SUDHL5 [2] (Homo sapiens, SU-DHL-5, 3 h) and 22.1 µM in the data set with SUDHL10 [3] (Homo sapiens, SU-DHL10, 3 h).

Broadly, the EC50 is the concentration at which the effect is half-maximal. Low readings indicate a more potent agent, high ones a less potent agent.
